From patent US9944613B2, “Fumagillol spirocyclic compounds and fused bicyclic compounds and methods of making and using same” (Zafgen, Inc., priority 2015, dated 2018)
Counter-ions that a name gives are not always drawn. Like-named read-outs stand apart in the source and are kept apart here.

Experiments:
[1] = system: Diet Induced Obese (DIO) C57BL/6 mice; assay: 10 day DIO mouse model, weight loss vs. vehicle; assay type: in vivo; details: 240 h, 0.3 mpk sc once a day for 10 days
Text: The objective of this study design was to investigate the efficacy of disclosed compounds in a 10 day DIO mouse model. Effects on body weight, food intake, hematology and blood chemistry were the primary readouts of this study design. Male, Diet Induced Obese (DIO) C57BL/6 mice, 19-21 weeks of age (13-15 weeks on high fat diet) were ordered from a certified vendor and upon receipt were housed on irradiated corncob bedding in micro-isolator cages on a 12-hour light-dark cycle (0700-1900) at 68-74° F. and 30-70% humidity. Mice were fed Research Diets D12492 (60% Kcal fat, 20% Kcal carbohydrate and 20% protein) and provided water ad libitum. DIO mice were received and housed in the facility for approximately two weeks prior to the start of test article administration. On Day −4 or −3, mice were randomized into study groups based on body weight and body weights were continued to be recorded daily for the duration of the study. Daily food intake was assessed starting on Study Day −2 by weighing of the food with hopper together to avoid loss of food in transfer.
(§1) Compounds were formulated into a 100% DMSO stock (at 9 mg/mL) prior to the start, and further diluted into the target working concentration using the vehicle of 10% DMSO in water. Prior to test article administration, starting on Day −3 a dosing acclimation occured with all animals receiving a subcutaneous injection of vehicle (10% DMSO) only for 3 days. Starting on Day 1, test compounds or vehicle were administered based on individual body weight, subcutaneously, once a day for 10 days. All mice were sacrificed on Day 11, 24 hours following the final dosing on Day 10. After sacrifice, whole blood was collected and analyzed for hematology and blood chemistry parameters.
(§2) Compounds were tested for weight loss vs. vehicle at 0.3 and 1.0 mpk sc (mg per kg animal weight delivered subcutaneously), and the results are shown in Table 2 below.

[2] = system: rat DIO model (Sprague Dawley rats on high fat diet); assay: 11 day rat DIO model, weight loss vs. vehicle; assay type: in vivo; details: for inhibition in vivo at 0.3 mg/kg: Rattus norvegicus, 264 h, 0.3 mpk sc once a day for 11 days
Text: The objective of this study design is to investigate the efficacy of disclosed compounds in an 11 day rat DIO model used to screen compounds for pharmacologic efficacy on endpoints related to obesity and metabolism. Effects on body weight, food intake, hematology and blood chemistries were the primary readouts of this study design. Male Sprague Dawley rats, approximately 8 weeks of age, were ordered from a certified vendor and housed on irradiated corncob bedding in micro-isolator cages, on a 12-hour light-dark cycle (0700-1900) at 68-74° F. and 30-70% humidity. Rats were fed Research Diets D12451 (45% High Fat) and provided water ad libitum. Rats were received and housed in the facility for at least two or three weeks prior to start of test article administration. On Day −4 or −3, rats were randomized into study groups based on body weight and body weights were continued to be recorded daily for the duration of the study. Daily food intake was assessed starting on Study Day −2 by weighing the hopper including the food to avoid loss of food in transfer.
as §1, with “for 11” for “for 10”, “All animals” for “All mice”, “11, approximately 2” for “11, 24”, “Day 11.” for “Day 10.”
as §2

recombinant human MetAP2 = target: T1, recombinant human MetAP2 (Homo sapiens, UniProt P50579); assay: Inhibition of recombinant human MetAP2 activity (MAS peptide / amino acid oxidase / Amplex assay); assay type: biochemical
T1 construct: Flag; made in house
Method: Compounds are tested for their capacity to inhibit recombinant human MetAP2 activity using the following assay.
Flag tagged Human recombinant MetAP2 expressed and isolated for use as the enzyme source. 10 mM stock solutions of compounds were prepared in 100% DMSO and further diluted in 100% DMSO required concentration to 1 mM stocks. The stock compound solutions and DMSO vehicle controls were diluted to target final compound concentrations using assay buffer to a final concentration of 50 mM HEPES containing 100 mM NaCl, pH adjusted to 7.5. The MAS peptide was formulated to a 7.5 mM stock in distilled water and prior to use further diluted 1:4. […] 40 μl of enzyme was mixed with 100 μl of MnCl2 then further diluted in assay buffer to a final concentration of 16 μg/ml. To test for compound effect on MetAP2 enzyme activity, 5 μl of test compound, 10 μl of MAS substrate/amino acid oxidase mixture, 10 μl of MetAP2 was added to test wells in a 384 well black plate with blank wells containing no enzyme, replaced with 10 μl of assay buffer. All compounds were tested in duplicate on two occasions on the same day.
The plate was sealed with a TopSeal A cover and mixed briefly on an orbital mixer at 900 rpm. The plate was incubated for a further 25 minutes at 25° C. A 5× stock of Amplex buffer was prepared (0.25M sodium phosphate, pH 7.4) and stored at 4° C. When preparing for use the stock was diluted with distilled water. […] Horse radish peroxidase was diluted in […] of Amplex buffer, 100 μl of this was combined with 50 μl of Amplex Ultrared in […] of 1× Amplex buffer to generate sufficient detection reagent for a 384 well plate. 25 μl detection reagent was added to each well of the test plate, which was re-sealed and mixed briefly on an orbital shaker. The plate was transferred to an Envision Multi-label reader and RFU measured corresponding to excitation 531 nm and emission 595 nm. At the end of the MetAP2 incubation 25 μl Amplex/HRP mixture per well was added and the plate read plate on a plate reader.

[3] = Flag tagged human recombinant MetAP2, 25 minutes at 25° C., read-out: MetAP2 IC50

T1 sequence (P50579 whole entry): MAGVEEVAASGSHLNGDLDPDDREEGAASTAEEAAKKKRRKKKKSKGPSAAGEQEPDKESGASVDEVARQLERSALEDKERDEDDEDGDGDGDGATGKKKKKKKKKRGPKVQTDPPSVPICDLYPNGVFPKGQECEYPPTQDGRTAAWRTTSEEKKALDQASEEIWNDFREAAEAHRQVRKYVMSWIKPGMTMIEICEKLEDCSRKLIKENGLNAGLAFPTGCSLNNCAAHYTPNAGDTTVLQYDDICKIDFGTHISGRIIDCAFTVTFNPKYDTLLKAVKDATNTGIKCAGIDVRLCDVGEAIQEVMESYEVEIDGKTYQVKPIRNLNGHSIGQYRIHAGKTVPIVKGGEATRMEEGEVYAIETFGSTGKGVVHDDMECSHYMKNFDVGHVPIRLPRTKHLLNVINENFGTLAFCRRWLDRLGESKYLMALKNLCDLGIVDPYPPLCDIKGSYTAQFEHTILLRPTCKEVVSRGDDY

IC50 (recombinant human MetAP2; [3])	SMILES	inhibition in vivo at 0.3 mg/kg [1]	inhibition in vivo at 0.3 mg/kg [2]	IC50 (recombinant human MetAP2)	Rat @ 1.0 mpk sc (%) ([2]; 1.0 mpk sc once a day for 11 days)
	CO[C@@H]1[C@H](OC(=O)N2CCC3(CC2)COC3)CC[C@]2(CO2)[C@H]1[C@@]1(C)O[C@@H]1CC=C(C)C [Example 5, (3R,4S,5S,6R)-5-methoxy-4-((2R,3R)-2-methyl-3-(3-methylbut-2-enyl)oxiran-2-yl)-1-oxaspiro[2.5]octan-6-yl 2-oxa-7-azaspiro[3.5]nonane-7-carboxylate]	16.7%	6.6%	< 50 nM	
50 to 500 nM	CO[C@@H]1[C@H](OC(=O)N2CCC3(CCOC3)CC2)CC[C@]2(CO2)[C@H]1[C@@]1(C)O[C@@H]1CC=C(C)C [Example 24, (3R,4S,5S,6R)-5-methoxy-4-((2R,3R)-2-methyl-3-(3-methylbut-2-enyl)oxiran-2-yl)-1-oxaspiro[2.5]octan-6-yl 2-oxa-8-azaspiro[4.5]decane-8-carboxylate]	20.5%	6.3%		
	CO[C@@H]1[C@H](OC(=O)N2C[C@H]3COC[C@H]3C2)CC[C@]2(CO2)[C@H]1[C@@]1(C)O[C@@H]1CC=C(C)C [Example 13, (3aR,6aS)-((3R,4S,5S,6R)-5-methoxy-4-((2R,3R)-2-methyl-3-(3-methylbut-2-enyl)oxiran-2-yl)-1-oxaspiro[2.5]octan-6-yl) tetrahydro-1H-furo[3,4-c]pyrrole-5(3H)-carboxylate]	16.9%	3.1%		
< 50 nM	CO[C@@H]1[C@H](OC(=O)NC2CC3(C2)CN(C)C3)CC[C@]2(CO2)[C@H]1[C@@]1(C)O[C@@H]1CC=C(C)C [Example 10, (3R,4S,5S,6R)-5-methoxy-4-((2R,3R)-2-methyl-3-(3-methylbut-2-enyl)oxiran-2-yl)-1-oxaspiro[2.5]octan-6-yl 2-methyl-2-azaspiro[3.3]heptan-6-ylcarbamate formate]	8.4%	2%		7.2%
< 50 nM	CO[C@@H]1[C@H](OC(=O)N2CC3(CCOC3)C2)CC[C@]2(CO2)[C@H]1[C@@]1(C)O[C@@H]1CC=C(C)C [Example 6, (3R,4S,5S,6R)-5-methoxy-4-((2R,3R)-2-methyl-3-(3-methylbut-2-enyl)oxiran-2-yl)-1-oxaspiro[2.5]octan-6-yl 6-oxa-2-azaspiro[3.4]octane-2-carboxylate]	13.9%	2.7%		
50 to 500 nM	CO[C@@H]1[C@H](OC(=O)N2C[C@H]3CN(CC(F)F)C[C@H]3C2)CC[C@]2(CO2)[C@H]1[C@@]1(C)O[C@@H]1CC=C(C)C [Example 19, (3aR,6aS)-((3R,4S,5S,6R)-5-methoxy-4-((2R,3R)-2-methyl-3-(3-methylbut-2-enyl)oxiran-2-yl)-1-oxaspiro[2.5]octan-6-yl) 5-(2,2-difluoroethyl)hexahydropyrrolo[3,4-c]pyrrole-2(1H)-carboxylate]	22.6%	7.6%		
< 50 nM	CO[C@@H]1[C@H](OC(=O)N2CC3(CCOCC3)C2)CC[C@]2(CO2)[C@H]1[C@@]1(C)O[C@@H]1CC=C(C)C [Example 3, (3R,4S,5S,6R)-5-methoxy-4-((2R,3R)-2-methyl-3-(3-methylbut-2-enyl)oxiran-2-yl)-1-oxaspiro[2.5]octan-6-yl 7-oxa-2-azaspiro[3.5]nonane-2-carboxylate]	18.9%	7.9%		
	CO[C@@H]1[C@H](OC(=O)N2CCC3(CCN(CC(F)F)CC3)CC2)CC[C@]2(CO2)[C@H]1[C@@]1(C)O[C@@H]1CC=C(C)C [Example 14, (3R,4S,5S,6R)-5-methoxy-4-((2R,3R)-2-methyl-3-(3-methylbut-2-enyl)oxiran-2-yl)-1-oxaspiro[2.5]octan-6-yl 9-(2,2-difluoroethyl)-3,9-diazaspiro[5.5]undecane-3-carboxylate]	23.3%	11.6%		
< 50 nM	CO[C@@H]1[C@H](OC(=O)N2CC3(CN(C)C3)C2)CC[C@]2(CO2)[C@H]1[C@@]1(C)O[C@@H]1CC=C(C)C [Example 12, (3R,4S,5S,6R)-5-methoxy-4-((2R,3R)-2-methyl-3-(3-methylbut-2-enyl)oxiran-2-yl)-1-oxaspiro[2.5]octan-6-yl 6-methyl-2,6-diazaspiro[3.3]heptane-2-carboxylate]	1.8%			
	CO[C@@H]1[C@H](OC(=O)N2CC3(C2)CS(=O)(=O)C3)CC[C@]2(CO2)[C@H]1[C@@]1(C)O[C@@H]1CC=C(C)C [Example 23, (3R,4S,5S,6R)-5-methoxy-4-((2R,3R)-2-methyl-3-(3-methylbut-2-enyl)oxiran-2-yl)-1-oxaspiro[2.5]octan-6-yl 2-thia-6-azaspiro[3.3]heptane 2,2-dioxide-6-carboxylate]	2%		50 to 500 nM	
< 50 nM	CO[C@@H]1[C@H](OC(=O)N2C[C@H]3CN(C)C[C@H]3C2)CC[C@]2(CO2)[C@H]1[C@@]1(C)O[C@@H]1CC=C(C)C [Example 20, (3aR,6aS)-((3R,4S,5S,6R)-5-methoxy-4-((2R,3R)-2-methyl-3-(3-methylbut-2-enyl)oxiran-2-yl)-1-oxaspiro[2.5]octan-6-yl) 5-methylhexahydropyrrolo[3,4-c]pyrrole-2(1H)-carboxylate formate]	1.4%			
< 50 nM	CO[C@@H]1[C@H](OC(=O)NC2CC3(CCN(C)CC3)C2)CC[C@]2(CO2)[C@H]1[C@@]1(C)O[C@@H]1CC=C(C)C [Example 7, (3R,4S,5S,6R)-5-methoxy-4-((2R,3R)-2-methyl-3-(3-methylbut-2-enyl)oxiran-2-yl)-1-oxaspiro[2.5]octan-6-yl 7-methyl-7-azaspiro[3.5]nonan-2-ylcarbamate formate]	1.9%			
	CO[C@@H]1[C@H](OC(=O)NC2CC3(CCN(C)C3)C2)CC[C@]2(CO2)[C@H]1[C@@]1(C)O[C@@H]1CC=C(C)C (stereo partly drawn) [Example 11, (3R,4S,5S,6R)-5-methoxy-4-((2R,3R)-2-methyl-3-(3-methylbut-2-enyl)oxiran-2-yl)-1-oxaspiro[2.5]octan-6-yl 6-methyl-6-azaspiro[3.4]octan-2-ylcarbamate formate]	6%		< 50 nM	
